According to the NIST ThermoML archive (doi:10.1016/j.fluid.2011.01.013):

Test: xn = mol fraction of the nth substance listed
Conditions: Gas, Oscillating disk viscometry

CCN(CC)CC [triethylamine] + CO
Conditions	viscosity [mPa·s]
296.97 K, Mass density=2.1808 kg/m3, x2 = 0.4998	0.007913
297.25 K, Mass density=0.6964 kg/m3, x2 = 0.4996	0.007853
298.22 K, Mass density=1.2804 kg/m3, x2 = 0.3322	0.007476
298.82 K, Mass density=0.6964 kg/m3, x2 = 0.4996	0.007887
298.92 K, Mass density=1.1039 kg/m3, x2 = 0.4982	0.007914
299.02 K, Mass density=0.6482 kg/m3, x2 = 0.4999	0.007865
310.39 K, Mass density=0.6964 kg/m3, x2 = 0.4996	0.008055
310.51 K, Mass density=2.1808 kg/m3, x2 = 0.4998	0.008259
310.56 K, Mass density=0.6482 kg/m3, x2 = 0.4999	0.008025
310.62 K, Mass density=1.1039 kg/m3, x2 = 0.4982	0.008147
310.75 K, Mass density=1.5253 kg/m3, x2 = 0.5035	0.008235
311.73 K, Mass density=1.2804 kg/m3, x2 = 0.3322	0.007712
324.1 K, Mass density=2.1808 kg/m3, x2 = 0.4998	0.008539
324.27 K, Mass density=1.2804 kg/m3, x2 = 0.3322	0.007852
324.64 K, Mass density=0.6964 kg/m3, x2 = 0.4996	0.008338
325.29 K, Mass density=1.1039 kg/m3, x2 = 0.4982	0.008337
325.44 K, Mass density=0.6482 kg/m3, x2 = 0.4999	0.008367
326.59 K, Mass density=1.5253 kg/m3, x2 = 0.5035	0.008476
337.6 K, Mass density=1.2804 kg/m3, x2 = 0.3322	0.008072
338.04 K, Mass density=1.5253 kg/m3, x2 = 0.5035	0.008626
338.18 K, Mass density=0.6482 kg/m3, x2 = 0.4999	0.008693
338.18 K, Mass density=1.1039 kg/m3, x2 = 0.4982	0.008632
338.37 K, Mass density=0.6964 kg/m3, x2 = 0.4996	0.008695
338.58 K, Mass density=2.1808 kg/m3, x2 = 0.4998	0.00869
352.3 K, Mass density=0.6964 kg/m3, x2 = 0.4996	0.009039
352.47 K, Mass density=0.6482 kg/m3, x2 = 0.4999	0.009053
352.57 K, Mass density=1.1039 kg/m3, x2 = 0.4982	0.009009
352.83 K, Mass density=2.1808 kg/m3, x2 = 0.4998	0.008949
352.91 K, Mass density=1.2804 kg/m3, x2 = 0.3322	0.008441
353.02 K, Mass density=1.5253 kg/m3, x2 = 0.5035	0.009026
365.7 K, Mass density=2.1808 kg/m3, x2 = 0.4998	0.009281
365.96 K, Mass density=1.5253 kg/m3, x2 = 0.5035	0.009349
366.02 K, Mass density=1.2804 kg/m3, x2 = 0.3322	0.008766
366.12 K, Mass density=1.5253 kg/m3, x2 = 0.5035	0.009363
366.13 K, Mass density=0.6482 kg/m3, x2 = 0.4999	0.009411
366.22 K, Mass density=1.2804 kg/m3, x2 = 0.3322	0.008747
366.24 K, Mass density=0.6964 kg/m3, x2 = 0.4996	0.009388
366.29 K, Mass density=1.1039 kg/m3, x2 = 0.4982	0.009353
366.41 K, Mass density=2.1808 kg/m3, x2 = 0.4998	0.009307
366.96 K, Mass density=0.6482 kg/m3, x2 = 0.4999	0.009415
367.89 K, Mass density=1.1039 kg/m3, x2 = 0.4982	0.009381
379.75 K, Mass density=1.2804 kg/m3, x2 = 0.3322	0.009075
380.83 K, Mass density=2.1808 kg/m3, x2 = 0.4998	0.009681
381.57 K, Mass density=0.6482 kg/m3, x2 = 0.4999	0.009793
381.81 K, Mass density=1.5253 kg/m3, x2 = 0.5035	0.00977
381.91 K, Mass density=1.1039 kg/m3, x2 = 0.4982	0.009758
383.76 K, Mass density=0.6964 kg/m3, x2 = 0.4996	0.009828
394.29 K, Mass density=2.1808 kg/m3, x2 = 0.4998	0.01004
394.84 K, Mass density=1.5253 kg/m3, x2 = 0.5035	0.01009
394.95 K, Mass density=0.6964 kg/m3, x2 = 0.4996	0.0101
394.98 K, Mass density=1.2804 kg/m3, x2 = 0.3322	0.009437
395.04 K, Mass density=0.6482 kg/m3, x2 = 0.4999	0.01012
395.34 K, Mass density=1.1039 kg/m3, x2 = 0.4982	0.01008
408.74 K, Mass density=1.2804 kg/m3, x2 = 0.3322	0.009753
409.01 K, Mass density=1.1039 kg/m3, x2 = 0.4982	0.01044
409.18 K, Mass density=2.1808 kg/m3, x2 = 0.4998	0.01042
409.61 K, Mass density=0.6482 kg/m3, x2 = 0.4999	0.0105
410.61 K, Mass density=1.5253 kg/m3, x2 = 0.5035	0.0105
410.75 K, Mass density=0.6964 kg/m3, x2 = 0.4996	0.01052
422.83 K, Mass density=1.2804 kg/m3, x2 = 0.3322	0.01008
423.21 K, Mass density=1.5253 kg/m3, x2 = 0.5035	0.01081
423.31 K, Mass density=0.6964 kg/m3, x2 = 0.4996	0.01083
423.64 K, Mass density=2.1808 kg/m3, x2 = 0.4998	0.01078
423.81 K, Mass density=1.1039 kg/m3, x2 = 0.4982	0.01081
425.55 K, Mass density=0.6482 kg/m3, x2 = 0.4999	0.01091
436.79 K, Mass density=1.5253 kg/m3, x2 = 0.5035	0.01116
436.89 K, Mass density=2.1808 kg/m3, x2 = 0.4998	0.01111
436.91 K, Mass density=0.6964 kg/m3, x2 = 0.4996	0.01117
437.47 K, Mass density=1.1039 kg/m3, x2 = 0.4982	0.01116
438.27 K, Mass density=0.6482 kg/m3, x2 = 0.4999	0.01122
441.21 K, Mass density=1.2804 kg/m3, x2 = 0.3322	0.01053
451.54 K, Mass density=1.2804 kg/m3, x2 = 0.3322	0.01076
451.6 K, Mass density=1.5253 kg/m3, x2 = 0.5035	0.01154
451.74 K, Mass density=1.1039 kg/m3, x2 = 0.4982	0.01151
452.02 K, Mass density=2.1808 kg/m3, x2 = 0.4998	0.01151
452.69 K, Mass density=0.6964 kg/m3, x2 = 0.4996	0.01157
453.25 K, Mass density=0.6482 kg/m3, x2 = 0.4999	0.01161
466.65 K, Mass density=2.1808 kg/m3, x2 = 0.4998	0.01188
466.76 K, Mass density=1.5253 kg/m3, x2 = 0.5035	0.01191
467.26 K, Mass density=1.1039 kg/m3, x2 = 0.4982	0.0119
467.4 K, Mass density=1.2804 kg/m3, x2 = 0.3322	0.01113
467.62 K, Mass density=0.6482 kg/m3, x2 = 0.4999	0.01197
480.98 K, Mass density=1.2804 kg/m3, x2 = 0.3322	0.01145
481.28 K, Mass density=1.1039 kg/m3, x2 = 0.4982	0.01225
481.51 K, Mass density=2.1808 kg/m3, x2 = 0.4998	0.01224
481.53 K, Mass density=0.6964 kg/m3, x2 = 0.4996	0.01229
482.14 K, Mass density=0.6482 kg/m3, x2 = 0.4999	0.01231
482.73 K, Mass density=1.5253 kg/m3, x2 = 0.5035	0.01229
494.94 K, Mass density=0.6964 kg/m3, x2 = 0.4996	0.01263
495.26 K, Mass density=1.2804 kg/m3, x2 = 0.3322	0.01179
495.28 K, Mass density=2.1808 kg/m3, x2 = 0.4998	0.0126
495.78 K, Mass density=1.5253 kg/m3, x2 = 0.5035	0.01264
496.37 K, Mass density=0.6482 kg/m3, x2 = 0.4999	0.01269
497.66 K, Mass density=1.1039 kg/m3, x2 = 0.4982	0.01267
